Source: US11339130B1 (Blade Therapeutics, Inc., priority 2016, dated 2022)
Where two headings read alike, the source gives them in different places.

Assays:
Type in all cases: biochemical
Human Calpain 1/NS1 = target: T1, Human Calpain 1/NS1 (Homo sapiens, UniProt P07384); assay: Calpain inhibition continuous fluorescence (FRET) assay, Human Calpain 1/NS1; conditions: read-out: Human Calpain 1/NS1 IC50
T1 sequence (P07384 1-714): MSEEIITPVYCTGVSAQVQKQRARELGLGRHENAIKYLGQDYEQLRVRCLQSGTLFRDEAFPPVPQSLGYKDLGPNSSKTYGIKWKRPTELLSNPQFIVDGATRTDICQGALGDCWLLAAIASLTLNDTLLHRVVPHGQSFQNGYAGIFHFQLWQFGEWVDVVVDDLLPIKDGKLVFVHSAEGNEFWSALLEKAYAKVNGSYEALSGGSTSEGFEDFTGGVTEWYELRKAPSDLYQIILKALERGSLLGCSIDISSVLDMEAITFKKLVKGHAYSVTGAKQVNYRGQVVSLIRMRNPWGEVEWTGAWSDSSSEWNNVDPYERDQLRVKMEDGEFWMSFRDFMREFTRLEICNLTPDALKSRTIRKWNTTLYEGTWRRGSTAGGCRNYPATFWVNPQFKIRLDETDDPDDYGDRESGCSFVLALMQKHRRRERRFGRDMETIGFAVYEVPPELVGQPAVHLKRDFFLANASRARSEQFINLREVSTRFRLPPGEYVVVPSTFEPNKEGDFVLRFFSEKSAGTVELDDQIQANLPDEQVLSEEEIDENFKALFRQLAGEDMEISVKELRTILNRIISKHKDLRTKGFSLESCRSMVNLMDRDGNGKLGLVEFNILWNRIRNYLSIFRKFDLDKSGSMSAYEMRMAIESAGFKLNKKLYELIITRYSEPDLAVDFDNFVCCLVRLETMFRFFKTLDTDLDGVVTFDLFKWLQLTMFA
T1 sequence (P04632 1-268 partner): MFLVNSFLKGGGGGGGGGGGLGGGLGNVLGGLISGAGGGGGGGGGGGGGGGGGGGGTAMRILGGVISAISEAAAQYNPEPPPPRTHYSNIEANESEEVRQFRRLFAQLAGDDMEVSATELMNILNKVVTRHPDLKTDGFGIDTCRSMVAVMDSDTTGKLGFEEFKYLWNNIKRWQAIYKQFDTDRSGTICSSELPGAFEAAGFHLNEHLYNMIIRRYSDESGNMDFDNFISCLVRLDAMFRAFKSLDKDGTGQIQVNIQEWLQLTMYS
Procedure: (§1) Calpain 1, 2, and 9 activity and inhibition thereof was assessed by means of a continuous fluorescence assay. The SensoLyte 520 Calpain substrate (Anaspec Inc) was optimized for detecting calpain activity. This substrate contains an internally quenched 5-FAM/QXL™ 520 FRET pair. Calpains 1, 2, and 9 cleave the FRET substrate into two separate fragments resulting in an increase of 5-FAM fluorescence that is proportional to calpain activity
(§2) Assays were typically setup in black 384-well plates using automated liquid handling as follows. Calpain assay base buffer typically contains 50 mM Tris, pH 7.5, 100 mM NaCl and 1 mM DTT. Inhibitors were serially diluted in DMSO and used to setup 2× mixtures with calpains in the aforementioned buffer. After incubation at ambient temperature (25C), the reaction was initiated by adding a 2× mix of the fluorescent peptide substrate and CaCl2) (required for in-situ calpain activation) in the same buffer. Reaction progress curve data were typically collected for 10 min using excitation/emission wavelengths of 490 nm/520 nm on SpectraMax i3× or the FLIPR-Tetra plate readers (Molecular Devices Inc). Reaction rates were calculated from progress curve slopes typically over 1-5 min. Dose response curves (rate vs. log inhibitor concentration) were typically fit to a 4-parameter logistic function to extract IC50 values.

Human Calpain 9/NS1 = target: T2, Human Calpain 9/NS1 (Homo sapiens, UniProt O14815); assay: Calpain inhibition continuous fluorescence (FRET) assay, Human Calpain 9/NS1; conditions: read-out: Human Calpain 9/NS1 IC50
T2 sequence (O14815 1-690): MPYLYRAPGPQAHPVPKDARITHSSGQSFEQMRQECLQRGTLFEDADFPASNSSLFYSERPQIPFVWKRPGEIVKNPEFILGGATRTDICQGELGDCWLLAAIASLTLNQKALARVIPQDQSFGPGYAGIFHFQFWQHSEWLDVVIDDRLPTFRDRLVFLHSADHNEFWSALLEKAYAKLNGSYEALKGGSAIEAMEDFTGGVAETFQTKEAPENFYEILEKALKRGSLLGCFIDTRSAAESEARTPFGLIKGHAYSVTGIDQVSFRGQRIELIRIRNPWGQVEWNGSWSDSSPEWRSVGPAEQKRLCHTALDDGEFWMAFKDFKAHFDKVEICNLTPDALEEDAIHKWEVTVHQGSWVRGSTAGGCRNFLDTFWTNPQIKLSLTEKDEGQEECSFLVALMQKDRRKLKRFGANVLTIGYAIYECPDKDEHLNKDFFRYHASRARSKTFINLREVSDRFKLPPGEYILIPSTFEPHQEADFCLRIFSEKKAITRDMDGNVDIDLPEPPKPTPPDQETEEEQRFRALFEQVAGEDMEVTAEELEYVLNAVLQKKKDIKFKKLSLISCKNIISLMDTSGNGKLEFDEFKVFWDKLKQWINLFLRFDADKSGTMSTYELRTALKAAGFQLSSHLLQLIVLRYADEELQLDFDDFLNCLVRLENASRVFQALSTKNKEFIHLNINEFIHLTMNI
T2 sequence (P04632 1-268 partner): T1 sequence (P04632 1-268 partner)
Procedure: as §1, §2

Human Calpain 2/NS1 = target: T3, Human Calpain 2/NS1 (Homo sapiens, UniProt P17655); assay: Calpain inhibition continuous fluorescence (FRET) assay, Human Calpain 2/NS1; conditions: read-out: Human Calpain 2/NS1 IC50
T3 sequence (P17655 1-700): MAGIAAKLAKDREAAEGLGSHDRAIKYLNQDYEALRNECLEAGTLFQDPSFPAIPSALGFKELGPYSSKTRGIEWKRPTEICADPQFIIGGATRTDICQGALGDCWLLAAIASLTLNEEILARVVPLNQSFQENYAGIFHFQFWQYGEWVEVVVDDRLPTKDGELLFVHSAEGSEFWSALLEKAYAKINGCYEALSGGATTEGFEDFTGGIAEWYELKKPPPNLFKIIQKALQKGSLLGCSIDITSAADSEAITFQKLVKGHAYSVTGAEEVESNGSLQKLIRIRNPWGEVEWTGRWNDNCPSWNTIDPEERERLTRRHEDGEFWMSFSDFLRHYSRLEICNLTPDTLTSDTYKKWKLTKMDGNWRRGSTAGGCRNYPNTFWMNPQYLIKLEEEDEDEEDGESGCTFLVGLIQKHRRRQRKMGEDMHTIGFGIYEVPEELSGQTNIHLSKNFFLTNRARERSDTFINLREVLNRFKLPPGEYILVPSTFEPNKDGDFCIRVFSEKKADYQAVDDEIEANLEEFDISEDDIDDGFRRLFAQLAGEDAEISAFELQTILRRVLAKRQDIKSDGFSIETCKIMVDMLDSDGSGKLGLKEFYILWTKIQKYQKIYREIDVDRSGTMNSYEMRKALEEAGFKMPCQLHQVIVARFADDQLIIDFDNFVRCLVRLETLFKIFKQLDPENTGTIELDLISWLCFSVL
T3 sequence (P04632 1-268 partner): T1 sequence (P04632 1-268 partner)
Procedure: as §1, §2

Row | Compound | IC50 (Human Calpain 1/NS1; Column A) [µM] | IC50 (Human Calpain 9/NS1; Column C) [µM] | IC50 (Human Calpain 2/NS1; Column B) [µM] | IC50 (Human Calpain 1/NS1) [µM] | IC50 (Human Calpain 9/NS1) [µM] | IC50 (Human Calpain 2/NS1) [µM]
1 | NC(=O)C(=O)[C@H](Cc1ccccc1)NC(=O)c1[nH]ncc1-c1ccccc1 [Compound 129, (S)—N-(4-amino-3,4-dioxo-1-phenylbutan-2-yl)-4-phenyl-1H-pyrazole-5-carboxamide] | 3 to 10 | 3 to 10 | > 10 | – | – | –
2 | Cn1cc(C(=O)NC(Cc2ccccc2)C(=O)C(N)=O)c(C2CCCN(C(=O)OC(C)(C)C)C2)n1 (stereo not drawn) [Compound 624, Tert-Butyl 3-(4-((4-amino-3,4-dioxo-1-phenylbutan-2-yl)carbamoyl)-1-methyl-1H-pyrazol-3-yl)piperidine-1-carboxylate] | – | – | – | < 3 | < 3 | < 3
3 | Cn1nc(-c2ccccc2)c(C(=O)N[C@@H](Cc2ccccc2)C(=O)C(N)=O)c1Cl [Compound 94, (S)—N-(4-amino-3,4-dioxo-1-phenylbutan-2-yl)-5-chloro-1-methyl-3-phenyl-1H-pyrazole-4-carboxamide] | < 3 | < 3 | < 3 | – | – | –
4 | Cn1cc(C(=O)NC(Cc2ccccc2)C(=O)C(N)=O)c(C2CC2)n1 (stereo not drawn) [Compound 616, N-(4-amino-3,4-dioxo-1-phenylbutan-2-yl)-3-cyclopropyl-1-methyl-1H-pyrazole-4-carboxamide] | – | – | – | 3 to 10 | 3 to 10 | < 3
5 | Cn1ncc(C(=O)NC(Cc2ccccc2)C(=O)C(N)=O)c1Cc1ccccc1 (stereo not drawn) [Compound 488, N-(4-amino-3,4-dioxo-1-phenylbutan-2-yl)-5-benzyl-1-methyl-1H-pyrazole-4-carboxamide] | – | – | – | 3 to 10 | 3 to 10 | 3 to 10
6 | Cc1cc(C(F)(F)F)cc(-n2nc(C)cc2C(=O)N[C@@H](Cc2ccccc2)C(=O)C(=O)NC2CC2)n1 [Compound 206, (S)—N-(4-(cyclopropylamino)-3,4-dioxo-1-phenylbutan-2-yl)-3-methyl-1-(6-methyl-4-(trifluoromethyl)pyridin-2-yl)-1H-pyrazole-5-carboxamide] | < 3 | > 10 | > 10 | – | – | –
7 | N-(4-amino-3,4-dioxo-1-phenylbutan-2-yl)-3-(isoquinolin-3-yl)-1-methyl-1H-pyrazole-4-carboxamide [Compound 629] | – | – | – | < 3 | < 3 | < 3
8 | Cc1cc(C(=O)N[C@@H](Cc2ccccc2)C(=O)C(N)=O)n(-c2ncccn2)n1 (single isomer, unassigned) [Compound 36] | > 10 | 3 to 10 | 3 to 10 | – | – | –
9 | Cn1cc(C(=O)NC(Cc2ccccc2)C(=O)C(N)=O)c(C2CCOCC2)n1 (stereo not drawn) [Compound 617, N-(4-amino-3,4-dioxo-1-phenylbutan-2-yl)-1-methyl-3-(tetrahydro-2H-pyran-4-yl)-1H-pyrazole-4-carboxamide] | – | – | – | 3 to 10 | < 3 | < 3
10 | Cn1ncc(C(=O)N[C@@H](Cc2ccccc2)C(=O)C(N)=O)c1-c1cccc(C(F)(F)F)n1 [Compound 194, (S)—N-(4-amino-3,4-dioxo-1-phenylbutan-2-yl)-1-methyl-5-(6-(trifluoromethyl)pyridin-2-yl)-1H-pyrazole-4-carboxamide] | < 3 | < 3 | < 3 | – | – | –
11 | O=C(NC1CC1)C(=O)[C@H](Cc1ccccc1)NC(=O)c1cncn1-c1ncc(-c2ccccc2)cn1 [Compound 76, (S)—N-(4-(cyclopropylamino)-3,4-dioxo-1-phenylbutan-2-yl)-1-(5-phenylpyrimidin-2-yl)-1H-imidazole-5-carboxamide] | < 3 | 3 to 10 | < 3 | – | – | –
12 | NC(=O)C(=O)C(Cc1ccccc1)NC(=O)c1cn(C(F)F)nc1-c1ccc2ccncc2c1 (stereo not drawn) [Compound 630, N-(4-amino-3,4-dioxo-1-phenylbutan-2-yl)-1-(difluoromethyl)-3-(isoquinolin-7-yl)-1H-pyrazole-4-carboxamide] | – | – | – | < 3 | < 3 | < 3
13 | Cc1noc(-c2ccccc2)c1C(=O)N[C@@H](CCc1ccccc1)C(=O)C(N)=O [Compound 205, (S)—N-(1-amino-1,2-dioxo-5-phenylpentan-3-yl)-3-methyl-5-phenylisoxazole-4-carboxamide] | < 3 | < 3 | < 3 | – | – | –
14 | CCCC[C@H](NC(=O)c1c(C)noc1-c1ccccc1)C(=O)C(N)=O [Compound 62, (S)—N-(1-amino-1,2-dioxoheptan-3-yl)-3-methyl-5-phenylisoxazole-4-carboxamide] | < 3 | < 3 | < 3 | – | – | –
15 | NC(=O)C(=O)[C@H](Cc1ccccc1)NC(=O)c1csnc1-c1ccccc1 [Compound 11, (S)—N-(4-amino-3,4-dioxo-1-phenylbutan-2-yl)-3-phenylisothiazole-4-carboxamide] | < 3 | < 3 | < 3 | – | – | –
16 | Cn1cc(C(=O)NC(Cc2ccccc2)C(=O)C(N)=O)c(N2CCOCC2)n1 (stereo not drawn) [Compound 614, N-(4-amino-3,4-dioxo-1-phenylbutan-2-yl)-1-methyl-3-morpholino-1H-pyrazole-4-carboxamide] | – | – | – | 3 to 10 | 3 to 10 | 3 to 10
17 | Cc1cc(C(=O)N[C@H](C=O)Cc2ccccc2)nn1-c1ccccc1 [Compound 5] | > 10 | 3 to 10 | 3 to 10 | – | – | –
18 | Cc1cc(C(=O)NC(Cc2ccccc2)C(=O)C(=O)NC2CC2)n(-c2ccncc2)n1 (stereo not drawn) [compound 210] | < 3 | < 3 | < 3 | – | – | –
